Data from patent publication US20030059843A1, “High throughput screening of ligand binding to macromolecules using high resolution powder diffraction” (priority 2001, published 2003).
“Also recorded” adds a separate entry of the source.

Molecular target: T1, Chicken egg lysozyme (Gallus gallus, UniProt P00698)
T1 construct: Chicken egg lysozyme (EC 3.2.1.17, FisherBiotech, 3X crystallized, lot Nos. 995417-12 and 996924-12); purchased FisherBiotech; host or cells: chicken egg (natural source)
Experiment: Ligand binding to polycrystalline lysozyme detected by high resolution X-ray powder diffraction
Text: The screening method of the present invention can be as follows. Two samples of polycrystalline material are produced as slurries. By “slurry” is meant, for example, a suspension of microcrystals of a macromolecule or macromolecule-ligand complex in a liquid. One of the samples includes the target protein or macromolecule and a suitable solvent. The other of the samples includes the target protein or macromolecule, one or more selected ligands and the same solvent as in the first sample. High resolution powder diffraction patterns are obtained for the polycrystalline macromolecule material in each sample. The patterns from the first and second samples are then compared to see if there is any discernable difference between the two sets of diffraction patterns beyond expected or measured experimental error or variation. When there is such a discernable difference between the two sets of diffraction patterns, that is a positive indication for the formation of a complex between the target protein or macromolecule and one or more of the selected ligands. […] In another manner, the pattern of the first sample can be inspected or analyzed to determine the positions of the diffraction peaks from the unbound form of the target protein or macromolecule, while the pattern of the second sample can be inspected or analyzed to determine the positions of the diffraction peaks from the target protein or macromolecule in the presence of the one or more selected ligands. Differences in such diffraction peaks can then be used to determine if there is a difference indicating binding of a ligand. This process is readily automated via computerized data processing routines.
Chicken egg lysozyme (EC 3.2.1.17, FisherBiotech, 3X crystallized, lot Nos. 995417-12 and 996924-12) and N-acetylglucosamine (NAG, ICN Biomedicals, Inc. lot No. R9745), pH 6.0 0.05M Na2HPO4/KH2PO4 buffer (Fisher Sci.), pH 5.0 0.05M KHphthalate/NaOH buffer (Hydrion™, Aldrich Chem.) and NaCl (“Certified for Biological Use”, Fisher Sci.) were used as received. In a typical sample preparation, a polycrystalline slurry was made by combining ˜20 mg lysozyme (1.4 μmol), about 10 mg of NAG (45 μmol) and 200 μl of 0.5M NaCl pH 6.0 buffer with an agate mortar and pestle. Polycrystalline precipitate formed within a few seconds. The slurry was loaded into a 1.5 mm diameter glass capillary, and centrifuged to pack the slurry. Excess mother liquor was removed and the capillary flame sealed to prevent subsequent solvent evaporation. In a similar way, a polycrystalline sample of unbound lysozyme in pH 6.0 0.5M NaCl buffer was prepared. Similar samples with pH 5.0 0.5M NaCl buffer were also prepared. Samples were about 8 mm long. As each sample was prepared, X-ray powder diffraction data were immediately collected at room temperature (23° C.) on beam line X3bl at the National Synchrotron Light Source, Brookhaven National Laboratory, equipped with a double Si(111) monochromator and a Ge(111) analyser; the sample was spun during data collection to ensure good powder averaging.

T1 sequence (P00698 19-147): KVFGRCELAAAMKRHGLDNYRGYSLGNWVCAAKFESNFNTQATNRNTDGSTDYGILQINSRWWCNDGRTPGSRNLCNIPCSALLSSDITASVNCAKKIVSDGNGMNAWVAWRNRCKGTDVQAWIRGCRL

Q: How did the “lattice parameter a smaller compared to pure lysozyme from the same solvent” value (pH 5.0 0.5M NaCl) turn out when `CC(=O)N[C@H]1C(O)O[C@H](CO)[C@@H](O)[C@@H]1O` (stereo partly shown) [NAG, N-acetylglucosamine] was run?
A: The value was 0.06%.

Q: And the “lattice parameter c larger compared to pure lysozyme from the same solvent” value (pH 5.0 0.5M NaCl)?
A: Its value is 0.15%.

Q: And the “lattice parameter a smaller compared to apo-protein precipitated from the same buffer” value (pH 6.0 0.5M NaCl)?
A: Its value is 0.21%.

Q: What about the “lattice parameter c larger compared to apo-protein precipitated from the same buffer” value (pH 6.0 0.5M NaCl) of the same compound?
A: The value was 0.49%.

Q: What about the “change in powder diffraction pattern versus unbound lysozyme (complex formation)” value (slurry from pH 5.0 0.5M NaCl buffer, FIG. 2) of the same compound?
A: Its value is “no visible change in the powder pattern; also recorded: no changes evident”.

Q: What about the “change in powder diffraction pattern versus unbound lysozyme (complex formation)” value (slurry from pH 6.0 0.5M NaCl buffer, FIG. 1) of the same compound?
A: Its value is “a structural modification has occurred associated with the formation of a NAG/lysozyme complex”.

Q: And the “change in powder diffraction pattern versus unbound lysozyme (complex formation)” value (slurry from pH 6.0 0.5M NaCl buffer, FIG. 1, listed as α-NAG)?
A: The value was “easily visible changes in the powder diffraction patterns”.
